Measured values taken from patent US7816566B2, “p-Menthan-3-ol alkylated derivatives and their use as refreshing agents” (Robertet S.A., priority 2004, dated 2010).
Read-outs that look alike come from different tables or passages of the source.

Experiments:
[1] = organoleptic evaluation of the compounds: refreshing effect, bitterness, odour; assay type: in vivo; details: sensation of freshness, intensity in words
[2] = refreshing effect in a tobacco flavouring composition; assay type: in vivo; details: approximately 0.05 g per kilogram of tobacco
Source text: Approximately 0.05 g of (−)-(1R,3R,4S)-3-hydroxy-p-menthane-3-[…] is used per kilogram of tobacco.

[3] = cited from earlier work; for refreshing effect: prior art
[4] = prior art; cited from earlier work
[5] = refreshing effect in a mouthwash flavouring composition; assay type: in vivo; details: approximately 0.2 g per litre of prepared mouthwash
Source text: Approximately 0.2 g of (−)-(1R,3R,4S)-3-hydroxy-p-menthane-3-methanol is used per litre of prepared mouthwash.

[6] = refreshing effect in boiled sweets; assay type: in vivo; details: 0.2 g per kilogramme of final product
Protocol: A solution of saccharose (350 g) in water (110 g) is prepared which is boiled at 107° C. 150 g of glucose syrup is added and boiled at 148° C. The flavouring, citric acid and colouring agent are added at a temperature of approximately 120°, and 0.2 g of (−)-(1R,3R,4S)-3-hydroxy-p-menthane-3-methanol is added per kilogramme of final product.

[7] = hydrophilic nature of the compound; assay type: physicochemical

melting point | Compound | refreshing effect [1] | also measured
 | CC(C)[C@@H]1CC[C@@H](C)C[C@@]1(O)CC(C)(C)O [compound 6] | reduced intensity | 
48 to 50 °C | CC(C)[C@@H]1CC[C@@H](C)C[C@@]1(O)CO [2b, (−)-(1R,3S,4S)-3-hydroxy-p-menthane-3-methanol] |  | 
80 to 82 °C | CC(C)[C@@H]1CC[C@@H](C)C[C@@]1(O)CCO [1a, (−)-(1R,3R,4S)-3-hydroxy-p-menthane-3-ethanol] |  | refreshing effect [2]: A refreshing effect is obtained
 | CC(C)[C@@H]1CC[C@@H](C)C[C@@]1(O)C(C)CO (some centres unmarked) [compound 4] | reduced intensity | 
 | CC1=C(N2CCCC2)C(=O)OC1 [4-methyl-3-(1-pyrrolidinyl)-2[5H]furanone] |  | refreshing effect [3]: very intense refreshing effect
 | CC(C)[C@@H]1CC[C@@H](C)C[C@]1(CO)OCCO [compound 11] | not endowed with a particularly intense refreshing effect | 
 | CC(C)[C@@H]1CC[C@@H](C)C[C@H]1O [l-menthol] |  | burning sensation ([3]; when used at a high concentration): can cause a burning sensation; volatility [4]: too high volatility
80 to 82 °C | CC(C)[C@@H]1CC[C@@H](C)C[C@]1(O)CO [2a, (−)-(1R,3R,4S)3-hydroxy-p-menthane-3-methanol] |  | refreshing effect [5]: A refreshing effect is obtained; refreshing effect [6]: A very distinct refreshing effect is obtained
 | CNC(=O)C(C)(C(C)C)C(C)C [2-isopropyl-N,2,3-trimethylbutyramide] |  | refreshing effect [3]: very active
 | CC(O)C[C@]1(O)C[C@H](C)CC[C@H]1C(C)C (some centres unmarked) [compound 5] | reduced intensity | 
 | CC(C)[C@@H]1CC[C@@H](C)C[C@]1(O)C(O)CO (stereo partly drawn) [compound 3, (1R,3R,4S)-3-hydroxy-p-menthane-3-(ethane-1,2-diol)] | intense | hydrophilic nature [7]: hydrophilic
84 to 86 °C | CC(C)[C@@H]1CC[C@@H](C)C[C@]1(O)CCO [1b, (−)-(1R,3S,4S)-3-hydroxy-p-menthane-3-ethanol] |  | 
